Laboratory results as given in article PMC5447729 (Frontiers in Pharmacology, 2017).
Like-named read-outs stand apart in the source and are kept apart here.

Experiments:
db/db mice = assay: Three-week oral treatment of diabetic db/db mice (FBG, ITT, serum parameters, organ indices); assay type: in vivo
Experimental: All animal experiments were performed according to procedures approved by the Animal Experimentation Ethics Committee of the Beijing Institute of Pharmacology and Toxicology for animal care, handling and termination. Eight-week-old male homozygous C57BLKS/J db/db mice were obtained from the Model Animal Research Centre of Nanjing University (Nanjing, China) and fed a standard mouse diet. Male C57BL/6 mice (4 weeks old) were obtained from the Laboratory Animal Centre of the Beijing Institute of Pharmacology and Toxicology and fed a high-fat, high-sugar diet for 16 weeks to induce diet-induced obesity (DIO). […] Body weight (BW) and fasting blood glucose were recorded regularly during the treatment period. […] Blood glucose was monitored at 0, 30, 60, 90, and 120 min after the oral administration of 1 g kg^−1 dextrose. […]
(§1) Serum triglyceride (TG), cholesterol, free fatty acid (FFA), and glucose levels were measured by using commercial kits (Nanjing Jiancheng Bioengineering Institute, Nanjing, China) according to the manufacturer's instructions. Serum adiponectin, monocyte chemotactic protein 1(MCP1), Interleukin-6 (IL-6), Receptor activator of nuclear factor kappa-B ligand (RANKL), and Adrenocorticotropic Hormone (ACTH) were quantified using a multiplex Luminex assay (Millipore/Linco Research).

DIO mice = assay: Three-week oral treatment of insulin-resistant DIO mice (OGTT, FBG, serum factors, organ indices, liver lipids, histology); assay type: in vivo; details: for body weight and WAT: RSG 10 mg kg−1, INT131 30 mg kg−1; for serum adiponectin / serum pro-inflammatory cytokines MCP-1 and IL-6: multiplex detection; for morphology of hepatocyte and hepatic lipid content: vs vehicle-treated
Experimental: All animal experiments were performed according to procedures approved by the Animal Experimentation Ethics Committee of the Beijing Institute of Pharmacology and Toxicology for animal care, handling and termination. Eight-week-old male homozygous C57BLKS/J db/db mice were obtained from the Model Animal Research Centre of Nanjing University (Nanjing, China) and fed a standard mouse diet. Male C57BL/6 mice (4 weeks old) were obtained from the Laboratory Animal Centre of the Beijing Institute of Pharmacology and Toxicology and fed a high-fat, high-sugar diet for 16 weeks to induce diet-induced obesity (DIO). […] Compounds were dissolved in DMSO and suspended in 0.5% carboxymethylcellulose. Body weight (BW) and fasting blood glucose were recorded regularly during the treatment period. After 14 d of treatment, db/db mice were subjected to insulin tolerance tests (ITT) and fasted for 6 h prior to the intraperitoneal (i.p.) injection of 1 U kg^−1 insulin, and blood glucose was estimated at the indicated time points. […] Blood glucose was monitored at 0, 30, 60, 90, and 120 min after the oral administration of 1 g kg^−1 dextrose. […] Interscapular brown adipose tissue (iBAT), epididymal white adipose tissue (eWAT), subcutaneous inguinal white adipose tissue (sWAT), liver and skeletal muscle were excised, weighed and rapidly frozen in liquid nitrogen for subsequent gene expression and western blot analysis.
as §1
To determine TG and total cholesterol levels in the liver, 50 mg of frozen tissue was homogenized with a TissueLyserII (Qiagen, Germantown, MD, USA) in 1 ml of chloroform/methanol (2:1, v/v), after which 200 μL of 0.05 M KCl was added, and the solution was centrifuged at 5,000 rpm for 10 min. The aqueous phase was removed, and the organic phase was filtered and dried by nitrogen flushing. After evaporation of the chloroform under nitrogen, lipid samples were resuspended in isopropyl alcohol, and TG and total cholesterol content were determined with enzymatic assays.
sWAT, iBAT, and liver samples were fixed, embedded in paraffin and sectioned. Sections were cut at a thickness of […] and stained with haematoxylin/eosin (HE). Liver sections as well as adipose sections from at least 3 mice per group were also stained with HE. Adipocyte (n = 100 adipocytes) diameter was measured using Image J software, and the average diameter was recorded for each animal.

PPARγ target genes = assay: Real-time PCR gene expression in tissues of treated DIO and db/db mice; assay type: in vivo; details: for expression of BAT marker genes (Ucp1, Cidea, Elove3, Cox7a, Cox8b) and adipogenesis and lipogenesis genes (aP2, adiponectin, Lpl, Cd36) in BAT: more pronounced in the INT131 group; for expression of adipogenesis and fatty acid metabolism genes in sWAT and eWAT / levels of macrophage markers Cd68 and F4/80, pro-inflammatory cytokines IL-6 and TNFα and chemokine Mcp1 / Ucp1, Elove3 and aP2 gene expression in skeletal muscle: DIO and db/db mice; for expression of adipogenesis and fatty acid metabolism genes in sWAT and eWAT / levels of macrophage markers Cd68 and F4/80, pro-inflammatory cytokines IL-6 and TNFα and chemokine Mcp1: sWAT and eWAT
Experimental: Total RNA was isolated from tissues with a High-Purity Total RNA Extraction Kit (BioTeke Corporation, Beijing, China) according to the manufacturer's instructions. RNA was reverse-transcribed into cDNA with a High Capacity cDNA Reverse Transcription Kit (Transgenes Corporation, Beijing, China). Real-time PCR was carried out on an ABI 7300 Real-time PCR System (Applied Biosystems, Foster City, CA, USA) using SYBR Green PCR Master Mix (Roche Molecular Biochemicals, Mannheim, Germany). Relative gene expression levels were normalized to the β-actin gene and quantified by using the 2^−ΔΔCt method. Primer sequences are listed in (Supplementary Table 1).

PRDM16 = assay: Western blot of PRDM16 protein in sWAT of treated mice; assay type: in vivo; details: DIO and db/db mice
Description: To obtain tissue lysates, eWAT and sWAT were homogenized in 10% sodium dodecyl sulfate buffer containing protease and phosphatase inhibitors. An antibody targeting PR domain containing 16 (PRDM16) (Abcam) was used for western blotting. Bands were detected with ECL enhanced chemiluminescence detection reagents (Applygen, Beijing, China) and scanned with an Alpha Imager 5500 (Alpha Innotech, San Leandro, CA, USA) imaging densitometer.

[1] = RSG and INT131 concentrations in plasma and tissue after a single oral dose (UHPLC-MS/MS); assay type: in vivo, DIO mice; details: for Tmax: C57BL/6, mouse, po, 30 mg/kg, read-out: time of peak concentration; for average residency time: blood concentration-time profile, pre-test, single oral gavage RSG 10 mg kg−1 or INT131 30 mg kg−1
C2C12 cells = assay: Conversion of myogenic C2C12 cells to adipocytes (gene expression); assay type: cell-based; details: 10 μM for 5 d after confluence, in the same manner as RSG
[2] = test system: mouse 3T3-L1 preadipocytes; assay: Differentiation of mouse 3T3-L1 preadipocytes; assay type: cell-based; details: we and others (Motani et al., 2009)
[3] = test system: diabetic Zucker (fa/fa) fatty rats; parameters: method as in prior studies in rodents; details: 3 mg kg−1 day−1 INT131 vs 1 mg kg−1 RSG, ref prior studies in rodents; cited from earlier work
[4] = all assayed tissues, DIO mice, RSG 10 mg kg−1 oral

Row | Structure (SMILES) | body weight and WAT (DIO mice) | serum adiponectin (DIO mice) | serum pro-inflammatory cytokines MCP-1 and IL-6 (DIO mice) | sizes of expanded adipocytes in the sWAT (DIO mice; HE staining) | morphology of hepatocyte and hepatic lipid content (DIO mice) | expression of BAT marker genes (Ucp1, Cidea, Elove3, Cox7a, Cox8b) and adipogenesis and lipogenesis genes (aP2, adiponectin, Lpl, Cd36) in BAT (PPARγ target genes; DIO mice) | expression of adipogenesis and fatty acid metabolism genes in sWAT and eWAT (PPARγ target genes) | levels of macrophage markers Cd68 and F4/80, pro-inflammatory cytokines IL-6 and TNFα and chemokine Mcp1 (PPARγ target genes) | Ucp1, Elove3 and aP2 gene expression in skeletal muscle (PPARγ target genes) | PRDM16 protein levels in sWAT (PRDM16) | average residency time [1] | further results
1 | O=S(=O)(Nc1cc(Cl)c(Oc2cnc3ccccc3c2)c(Cl)c1)c1ccc(Cl)cc1Cl [INT131, 2,4-dichloro-N-[3,5-dichloro-4-(quinolin-3-yloxy)phenyl] benzene sulfonamide] | no impact | equal elevation | decreased levels | markedly decreased | no impact | substantially up-regulation | similarly up-regulated | comparably reduced | enhanced | markedly increased | 4.4 ± 1.17 h | body weight gain compared with RSG (db/db mice; 10 and 30 mg kg−1 INT131 vs 10 mg kg−1 RSG): equal body weight gains; fasting blood glucose (FBG) (db/db mice; INT131 10 or 30 mg kg−1 by gavage once daily, within 1 week of treatment): lowered fasting blood glucose (FBG) in a dose-dependent manner; hepatic weight (DIO mice; 30 mg kg−1 INT131): did not induce an increase; brown adipocyte hypertrophy (adipocyte size and area in BAT) (DIO mice; BAT, HE staining): more severe brown adipocyte hypertrophy; Cd36 expression in the liver (PPARγ target genes; liver, DIO mice): only slightly induced an increase; expression of aP2, adiponectin and cidec in the liver (PPARγ target genes; liver, DIO mice): did not induce; induction of adipsin and cidea in the liver compared with RSG (PPARγ target genes; liver, DIO mice): to a lesser degree; Tmax ([1]; plasma and liver): 0.5 h; Tmax ([1]; skeletal muscle, eWAT, sWAT, BAT): 4 h; switch of myogenic cells to adipocytes (adipogenesis and myogenesis gene expression) (C2C12 cells): able to switch myogenic cells to adipocytes; promoting the differentiation of preadipocytes, compared with RSG [2]: weaker effects; blood glucose lowering effects compared with RSG [3]: identical
2 | CN(CCOc1ccc(CC2SC(=O)NC2=O)cc1)c1ccccn1 (stereo not shown) [RSG, 5-[[4-[2-[methyl(pyridin-2-yl)amino]ethoxy]phenyl]methyl]-1,3-thiazolidine-2,4-dione] | no impact | equal elevation | decreased levels | markedly decreased | dramatically aggravated hepatic hypertrophy and increased lipid accumulation | substantially up-regulation | similarly up-regulated | comparably reduced | enhanced | markedly increased | 4.03 ± 0.83 h | expression of adipocyte-specific genes aP2, adipsin, adiponectin, cidea and cidec in the liver (PPARγ target genes; liver, DIO mice): robustly up-regulated; expression of genes of lipogenesis (Acc) and fatty acid uptake (Cd36) in the liver (PPARγ target genes; liver, DIO mice): dramatically stimulated; expression of the key gluconeogenesis gene (Pepck) in the liver (PPARγ target genes; liver, DIO mice): inhibited; expression of fatty acid oxidation genes Cpt1b and Pdk4 in the liver (PPARγ target genes; liver, DIO mice, RSG rather than INT131): marked up-regulation; time of peak concentration (Cmax) [1, 4]: 0.5 h; tissue concentration by 12 h [1, 4]: almost negligible
